# According to a melting point compilation (Tetko et al.; mined from patent text by program, amines drawn as free bases though some values may be those of a salt):
row,Structure (SMILES),melting point [°C]
1,CCOC(=O)c1cn(CCBr)c2nc(N3CCN(C(C)=O)CC3)ncc2c1=O,202 to 204
2,CCCCCCCCCCc1ccc(COc2ccc(-c3ncc(CCCCCCCCC)cn3)cc2)cc1,105
3,O=C1OCc2c1cc1ccc3c(c1c2-c1ccc(Cl)cc1)OCO3,225 to 227
4,Cn1c(C=O)c(-c2ccc(F)cc2)c2ccccc21,75 to 79
5,CC(=O)OC[C@H]1O[C@@H]2[C@@H](Sc3ccc(Cl)cc3N2C)[C@@H](OC(C)=O)[C@@H]1OC(C)=O,217 to 218
6,COc1ccccc1Oc1c(Cl)nc(-c2ncccn2)nc1OCCO,133 to 137
7,Cc1nc2c(N)nc3ccccc3c2n1CCCCS(C)=O (configuration not stated),184 to 187
8,CC(C)C(N)=C(C#N)C(N)=S,112 to 114
9,CCOC(=O)Cn1cc(F)cnc1=O,121
10,O=C(Cc1cc(F)cc(F)c1)Nc1cccc2nc(N[C@@H]3CCc4ccccc43)ccc12,221
11,CCCCCc1c(C(C)C)nc(C(C)C)c(CO)c1-c1cccc(F)c1,117 to 118
12,Cc1ccc(S(=O)(=S)OCc2ccccc2)cc1 (configuration not stated),52 to 56.5
13,O=C1OC(=O)c2c1ccc1ccc3ccccc3c21,245
14,Cc1c(Cc2ccccc2)c(=O)oc2cc(OCC#N)cc(OCC#N)c12,147 to 154
15,COC(=O)COc1ccc(Cc2ncc(C(F)(F)F)cc2Cl)c(Cl)c1Cl,110 to 111
16,C/C(=C\c1ccccc1)CNc1cccc(-c2ccnc3c(C(=O)c4cccs4)cnn23)c1,74 to 76
17,CCCCn1c(C)c(C)cc(NC(=O)Nc2ccccc2Br)c1=O,154 to 155
18,Cn1nc(N)nc1NCCSCc1cccc(CN2CCCCC2)c1,92 to 93
19,CC(C)(C)c1ccc(C(O)CCCN2CCC(=C3c4ccccc4COc4ccccc43)CC2)cc1 (configuration not stated),160 to 161
20,O=C1C(=O)c2ccc(-c3ccccc3)cc2C2=C1SCC1(CCN(CC(O)COc3ccc(Cl)cc3)CC1)O2 (configuration not stated),93 to 98
21,C=C(C)Cn1c(=O)n(C)c(=O)c2c(SCCO)n(Cc3cccc4ccccc34)nc21,135 to 137
22,CCCSC1(C(F)(F)F)C=NC(=O)Nc2ccc(Cl)cc21 (configuration not stated),156 to 157
23,COC(=O)COc1ccc(SCc2cc(-c3ccc(Cl)cc3)on2)c2c1CCC2,112 to 114
24,C[C@H](NC(=O)CCn1cc(C2=C(c3cn(C)c4ccccc34)C(=O)NC2=O)c2ccccc21)C(=O)O,240 to 255

row,Structure (SMILES),melting point [°C]
1,O=[N+]([O-])c1ccc(Oc2ccc3c(c2)OCCC3Cl)cc1 (configuration not stated),67 to 68
2,CC1(C(=O)O)c2ccccc2-c2ccccc21,168 to 169
3,CN1Cc2c(/C=C\Cl)ncn2-c2ccccc2C1=O,197 to 199
4,O=C(O)C(=NOc1ccccc1)c1cccs1,86
5,Nc1ccc(Cl)c(C(=O)NCCC23CC4CC(CC(C4)C2)C3)c1,147 to 149
6,O=C(O)c1c(Cc2cc3c(cc2Cl)OCO3)c(-c2ccco2)nn1CC1CCCCC1,248
7,CC(C)c1ccc(S(=O)(=O)c2ccccc2)cc1S(=O)(=O)NC1CCN(C(=O)c2cccc(F)c2)CC1,215 to 218
8,CCCc1c(OCCCCCBr)ccc2c1OCCC2=O,47 to 48
9,O=C(O)CC1Cc2ccc(O)cc2OC1=O (configuration not stated),174 to 175
10,c1nc(Nc2ccc3[nH]ccc3c2)c2sc(-c3ccc(CNCCN4CCOCC4)cc3)cc2n1,100 to 111
11,COCc1nc(C=NNC(=S)SC)c[nH]1,150 to 154
12,CC(C)(C)C(=O)CC(=O)c1cccc(C(=O)CC(=O)C(C)(C)C)c1,106 to 108
13,Cc1cc(C)c2sc(-c3ccccn3)nc(=O)c2c1,245 to 246
14,c1ccc(-c2cn(C3CCCN4CCCCC34)nn2)cc1 (configuration not stated),150
15,Cc1cc(-c2ccc(Cl)cc2)nc(-n2cnc(-c3cccc(S(N)(=O)=O)c3)c2)n1,275
16,Cc1nc2c(N)nc3ccccc3c2n1Cc1cc(-c2ccc(F)cc2)no1,294 to 296
17,Cc1oncc1-c1cccc(OC2SCC(O)C(O)C2O)c1 (configuration not stated),180
18,CN1C(=O)NC(=O)C1=O,146 to 149
19,CCOC(=O)c1cc(-n2c(=O)c3c(n(C)c2=O)CCC3)ccc1Cl,141 to 143
20,OCC(O)c1cccc(OCc2ccc3ccccc3c2)c1 (configuration not stated),121 to 122
21,CCN1CCCC1CNC(=O)c1ccc2c(c1)C(=O)C1(CC1)O2 (configuration not stated),161 to 166
22,CCOC(=O)CC[C@H](NC(=O)c1ccc(C(CO)CC2CNc3nc(NC(=O)C(C)(C)C)nc(O)c3C2)cc1)C(=O)OCC (some centres not stated),133 to 135
23,CCN1c2ncccc2C(=O)Nc2c(C)cc(NCCn3cc[nH]c3=O)nc21,> 300
24,CC(C)(C)C(=O)NC(=O)N1CC1C#N (configuration not stated),136 to 138

row,Structure (SMILES),melting point [°C]
1,CCON1CCC2(CC1)NC(=O)C(c1c(C)cc(C)cc1C)=C2OC(=O)C(C)(C)C,230 to 231
2,Cc1cn(C(c2ccccc2)(c2ccccc2)c2ccccc2)cn1,214 to 216
3,CCCCCC(C)C(C)c1cc(O)c2c(c1)OC(C)(C)c1ccncc1-2 (configuration not stated),155 to 157
4,OC(Cc1nnn[nH]1)(Cn1cncn1)c1ccc(Cl)cc1Cl (configuration not stated),214 to 215
5,Cc1cccc(C(=O)Cc2ccnc(-c3ccc(OCC(N)=O)cc3)c2)n1,144 to 146
6,OCc1c[nH]c(-c2ccc(OCc3ccccc3)cc2)n1,183 to 185
7,Cc1cccc(-c2nc(N)sc2-c2ccc3ncccc3n2)n1,188
8,CC(C)(C)OC(=O)NC1CNc2c(cc(Br)cc2[N+](=O)[O-])C1 (configuration not stated),193 to 195
9,CCOC(=O)c1n[nH]c(C(=O)OCC)c1C(=O)c1ccc(Cl)cc1[N+](=O)[O-],168
10,CNc1cc(C(C)=O)ccc1OCCCN1CCC(c2noc3cc(F)ccc23)CC1,151 to 153
11,O=C(Nc1ccc(OCCN2CCOCC2)c2ccccc12)NC1CC1c1ccccc1 (configuration not stated),156 to 157
12,COc1cc(C(=O)c2ccc(C(F)(F)F)cc2)cc(N)c1OC,95 to 96
13,COc1cc(C)ccc1-c1cc2ccccc2[nH]1,125
14,C1=C(c2c[nH]c3ccccc23)CCN(CC2COc3ccc4c(c3O2)OCCC4)C1 (configuration not stated),140
15,CCc1nn(CCC(N)=O)c(CC)c1Cc1cc(Cl)cc(Cl)c1,140 to 142
16,O=C(O)COCCOCCN1CCC(=C(c2ccccc2)c2ccccc2)CC1,120 to 123
17,CCCCCCCCCCCCCCCCCCNC(=O)OCC(CNS(=O)(=O)CCCI)COC (configuration not stated),69 to 70
18,CCN(CC)CCOc1ccc(Oc2ccc(S(C)(=O)=O)cc2)cc1,92.5 to 94
19,CC(C)(C)OC(=O)NC(Cc1ccc(OCc2ccccc2)cc1)CN1CCOCC1 (configuration not stated),98 to 99
20,CC(C)(C)c1nc(-c2ncn3c2COc2cc(F)ccc2-3)no1,133 to 135
21,COc1cc(-n2c(=O)cc(C(F)(F)F)n(C)c2=O)c(F)cc1Cl,128 to 130
22,O=Cc1cnn(-c2cccc(C(F)(F)F)c2)c1,80 to 82
23,CN(C(=O)CCc1ccc(CN2CCC3(CCCC3)CC2)cc1)c1ccc(-c2ccc(Cl)cc2)cc1,119
24,O=C1C=C(O)C(=O)c2cc(Br)ccc21,197
